Measurements: article PMC5201331, “Subchronic Toxicities of HZ1006, a Hydroxamate-Based Histone Deacetylase Inhibitor, in Beagle Dogs and Sprague-Dawley Rats” (International Journal of Environmental Research and Public …, 2016)

Test system: Beagle dogs
Experiment: Subchronic toxicity test in Beagle dogs: hematology
Type: in vivo
Procedure: HZ1006 was administered orally to dogs (four/sex/group) at doses of 80, 40, 20, 5 and 0 (control) mg/kg/day, and the dosage volume was 2 mL/kg. The dogs received test doses with the exact amounts on a weekly basis based on current body weights. […] The other dogs in the above groups were dissected on the planned days. For the other groups, half of the dogs were anatomized on d28 and the remaining half on d42.
The following indexes were examined for the dogs used in the study, twice during the pre-dosage period and on d14, d28 and d42. The following parameters were evaluated on d28 and d42 for the rats in the study:
Blood samples of the animals were collected in tubes containing ethylenediamine tetraacetic acid (EDTA) and tested using an ADVIA2120 Hematology Autoanalyzer (Bayer, Leverkusen, Germany). The following indexes were examined: hemoglobin concentration (Hb), red blood cell count (RBC),mean corpuscular volume (MCV), hematocrit (HCT), mean corpuscular hemoglobin concentration (MCHC), mean corpuscular hemoglobin (MCH), white blood cell count (WBC), platelet count (Plt), WBC differential counts [neutrophilcyte (Neu), eosinophilic granulocyte (Eos), basophilic leukocyte (Bas), lymphocyte (Lym), and monocyte (Mon)] and reticulocytes (Ret). The serum coagulation times of the blood samples (1.8-mL samples were mixed with 0.2 mL sodium citrate), including prothrombin time (PT), fibrinogen (FIB), activated partial thromboplastin time (APTT), and thrombin time (TT), were tested using an MC10 plus Blood Coagulation Analyzer from Shanghai San Jose Medical Products Co., Ltd. (Shanghai, China).

[1] = dog ♀6 (80 mg/kg/day oral), d0 (pre-dose)
[2] = dog ♀6 (80 mg/kg/day oral), d14 line (moribund, euthanized d8)
[3] = dog ♀28 (40 mg/kg/day oral), d0 (pre-dose)
[4] = dog ♀28 (40 mg/kg/day oral), d14 (died d16)
[5] = dogs, 5 mg/kg/day oral, d0 (pre-dose)
[6] = dogs, 5 mg/kg/day oral, d42 (recovery)
[7] = dogs, 20 mg/kg/day oral, d0 (pre-dose)
[8] = dogs, 20 mg/kg/day oral, d42 (recovery)
[9] = dogs, 40 mg/kg/day oral, d0 (pre-dose)
[10] = dogs, 40 mg/kg/day oral, d42 (recovery)
[11] = dogs, 80 mg/kg/day oral, d0 (pre-dose)
[12] = dogs, 80 mg/kg/day oral, d42 (recovery)

CCCCCCCNc1cc(/C=C/C(=O)NO)ccc1OCCN(CC)CC [HZ1006]
APTT: Activated partial thromboplastin time [1]: 13.9 s | RET: Reticulocytes [1]: 1.37% | APTT: Activated partial thromboplastin time [2]: 48.7 s | RET: Reticulocytes [2]: 0.14% | APTT: Activated partial thromboplastin time [3]: 12.4 s | RET: Reticulocytes [3]: 0.75% | APTT: Activated partial thromboplastin time [4]: 18.5 s | RET: Reticulocytes [4]: 0.04% | APTT: Activated partial thromboplastin time [5]: 13.6 ± 0.6 s | FIB: Fibrinogen [5]: 2.25 ± 0.37 g/L | HCT: Hematocrit [5]: 43.0 ± 2.6% | HGB: Hemoglobin concentration [5]: 139 ± 8 g/L | MON: Monocyte [5]: 4.4 ± 1.6% | RBC: Red blood cell count [5]: 6.31 ± 0.45 ×10^12/L | RET: Reticulocytes [5]: 0.77 ± 0.38% | APTT: Activated partial thromboplastin time (dogs, 5 mg/kg/day oral, d14): 13.2 ± 0.6 s | FIB: Fibrinogen (dogs, 5 mg/kg/day oral, d14): 2.53 ± 0.46 g/L | HCT: Hematocrit (dogs, 5 mg/kg/day oral, d14): 41.8 ± 2.7% | HGB: Hemoglobin concentration (dogs, 5 mg/kg/day oral, d14): 138 ± 9 g/L | MON: Monocyte (dogs, 5 mg/kg/day oral, d14): 4.2 ± 1.0% | RBC: Red blood cell count (dogs, 5 mg/kg/day oral, d14): 6.23 ± 0.46 ×10^12/L | RET: Reticulocytes (dogs, 5 mg/kg/day oral, d14): 0.62 ± 0.29% | APTT: Activated partial thromboplastin time (dogs, 5 mg/kg/day oral, d28): 13.1 ± 0.5 s | FIB: Fibrinogen (dogs, 5 mg/kg/day oral, d28): 2.56 ± 0.40 g/L | HCT: Hematocrit (dogs, 5 mg/kg/day oral, d28): 41.6 ± 2.4% | HGB: Hemoglobin concentration (dogs, 5 mg/kg/day oral, d28): 135 ± 8 g/L | MON: Monocyte (dogs, 5 mg/kg/day oral, d28): 4.4 ± 1.4% | RBC: Red blood cell count (dogs, 5 mg/kg/day oral, d28): 6.22 ± 0.43 ×10^12/L | RET: Reticulocytes (dogs, 5 mg/kg/day oral, d28): 0.49 ± 0.23% | APTT: Activated partial thromboplastin time [6]: 13.4 ± 0.4 s | FIB: Fibrinogen [6]: 2.89 ± 0.60 g/L | HCT: Hematocrit [6]: 41.0 ± 1.8% | HGB: Hemoglobin concentration [6]: 134 ± 7 g/L | MON: Monocyte [6]: 4.0 ± 1.2% | RBC: Red blood cell count [6]: 6.21 ± 0.36 ×10^12/L | RET: Reticulocytes [6]: 0.61 ± 0.22% | APTT: Activated partial thromboplastin time [7]: 12.4 ± 0.3 s | FIB: Fibrinogen [7]: 4.07 ± 0.94 g/L | HCT: Hematocrit [7]: 42.2 ± 3.9% | HGB: Hemoglobin concentration [7]: 142 ± 13 g/L | MON: Monocyte [7]: 4.7 ± 1.3% | RBC: Red blood cell count [7]: 6.20 ± 0.58 ×10^12/L | RET: Reticulocytes [7]: 0.96 ± 0.24% | APTT: Activated partial thromboplastin time (dogs, 20 mg/kg/day oral, d14): 12.5 ± 0.5 s | FIB: Fibrinogen (dogs, 20 mg/kg/day oral, d14): 4.30 ± 1.17 g/L | HCT: Hematocrit (dogs, 20 mg/kg/day oral, d14): 36.9 ± 2.2 % | HGB: Hemoglobin concentration (dogs, 20 mg/kg/day oral, d14): 118 ± 7 g/L | MON: Monocyte (dogs, 20 mg/kg/day oral, d14): 8.0 ± 2.3 % | RBC: Red blood cell count (dogs, 20 mg/kg/day oral, d14): 5.57 ± 0.30 ×10^12/L | RET: Reticulocytes (dogs, 20 mg/kg/day oral, d14): 0.53 ± 0.23 % | APTT: Activated partial thromboplastin time (dogs, 20 mg/kg/day oral, d28): 12.0 ± 0.7 s | FIB: Fibrinogen (dogs, 20 mg/kg/day oral, d28): 4.48 ± 1.68 g/L | HCT: Hematocrit (dogs, 20 mg/kg/day oral, d28): 36.6 ± 1.0 % | HGB: Hemoglobin concentration (dogs, 20 mg/kg/day oral, d28): 118 ± 3 g/L | MON: Monocyte (dogs, 20 mg/kg/day oral, d28): 9.0 ± 1.4 % | RBC: Red blood cell count (dogs, 20 mg/kg/day oral, d28): 5.57 ± 0.16 ×10^12/L | RET: Reticulocytes (dogs, 20 mg/kg/day oral, d28): 0.54 ± 0.19 % | APTT: Activated partial thromboplastin time [8]: 12.8 ± 0.3 s | FIB: Fibrinogen [8]: 4.26 ± 0.49 g/L | HCT: Hematocrit [8]: 39.4 ± 1.7% | HGB: Hemoglobin concentration [8]: 128 ± 8 g/L | MON: Monocyte [8]: 5.8 ± 1.0% | RBC: Red blood cell count [8]: 5.96 ± 0.13 ×10^12/L | RET: Reticulocytes [8]: 0.83 ± 0.23% | APTT: Activated partial thromboplastin time [9]: 12.8 ± 0.5 s | FIB: Fibrinogen [9]: 4.84 ± 0.89 g/L | HCT: Hematocrit [9]: 41.7 ± 2.0% | HGB: Hemoglobin concentration [9]: 139 ± 6 g/L | MON: Monocyte [9]: 6.0 ± 1.8% | RBC: Red blood cell count [9]: 6.01 ± 0.31 ×10^12/L | RET: Reticulocytes [9]: 0.86 ± 0.17% | APTT: Activated partial thromboplastin time (dogs, 40 mg/kg/day oral, d14): 16.8 ± 0.7 s | FIB: Fibrinogen (dogs, 40 mg/kg/day oral, d14): 7.19 ± 1.58 g/L | HCT: Hematocrit (dogs, 40 mg/kg/day oral, d14): 35.5 ± 2.6 % | HGB: Hemoglobin concentration (dogs, 40 mg/kg/day oral, d14): 114 ± 8 g/L | MON: Monocyte (dogs, 40 mg/kg/day oral, d14): 9.2 ± 5.3% | RBC: Red blood cell count (dogs, 40 mg/kg/day oral, d14): 5.6 ± 0.36 ×10^12/L | RET: Reticulocytes (dogs, 40 mg/kg/day oral, d14): 0.13 ± 0.11 % | APTT: Activated partial thromboplastin time (dogs, 40 mg/kg/day oral, d28): 12.8 ± 0.8 s | FIB: Fibrinogen (dogs, 40 mg/kg/day oral, d28): 4.93 ± 1.22 g/L | HCT: Hematocrit (dogs, 40 mg/kg/day oral, d28): 32.8 ± 2.8 % | HGB: Hemoglobin concentration (dogs, 40 mg/kg/day oral, d28): 105 ± 9 g/L | MON: Monocyte (dogs, 40 mg/kg/day oral, d28): 11.6 ± 4.5 % | RBC: Red blood cell count (dogs, 40 mg/kg/day oral, d28): 5.00 ± 0.47 ×10^12/L | RET: Reticulocytes (dogs, 40 mg/kg/day oral, d28): 0.51 ± 0.22 % | APTT: Activated partial thromboplastin time [10]: 12.9 ± 0.8 s | FIB: Fibrinogen [10]: 4.22 ± 1.25 g/L | HCT: Hematocrit [10]: 39.7 ± 0.1% | HGB: Hemoglobin concentration [10]: 124 ± 1 g/L | MON: Monocyte [10]: 6.4 ± 3.5% | RBC: Red blood cell count [10]: 5.96 ± 0.06 ×10^12/L | RET: Reticulocytes [10]: 0.89 ± 0.65% | APTT: Activated partial thromboplastin time [11]: 13.4 ± 0.6 s | FIB: Fibrinogen [11]: 3.80 ± 0.84 g/L | HCT: Hematocrit [11]: 40.3 ± 3.0% | HGB: Hemoglobin concentration [11]: 134 ± 10 g/L | MON: Monocyte [11]: 5.0 ± 0.8% | RBC: Red blood cell count [11]: 5.92 ± 0.42 ×10^12/L | RET: Reticulocytes [11]: 0.92 ± 0.27% | APTT: Activated partial thromboplastin time (dogs, 80 mg/kg/day oral, d14): 16.2 ± 3.0 s | FIB: Fibrinogen (dogs, 80 mg/kg/day oral, d14): 7.06 ± 2.14 g/L | HCT: Hematocrit (dogs, 80 mg/kg/day oral, d14): 33.4 ± 2.6 % | HGB: Hemoglobin concentration (dogs, 80 mg/kg/day oral, d14): 107 ± 8 g/L | MON: Monocyte (dogs, 80 mg/kg/day oral, d14): 19.7 ± 19.7 % | RBC: Red blood cell count (dogs, 80 mg/kg/day oral, d14): 5.09 ± 0.42 ^##^,* ×10^12/L | RET: Reticulocytes (dogs, 80 mg/kg/day oral, d14): 0.08 ± 0.12 % | APTT: Activated partial thromboplastin time (dogs, 80 mg/kg/day oral, d28): 12.5 ± 0.5 s | FIB: Fibrinogen (dogs, 80 mg/kg/day oral, d28): 6.69 ± 0.62 g/L | HCT: Hematocrit (dogs, 80 mg/kg/day oral, d28): 26.9 ± 1.7 % | HGB: Hemoglobin concentration (dogs, 80 mg/kg/day oral, d28): 86 ± 5 g/L | MON: Monocyte (dogs, 80 mg/kg/day oral, d28): 12.5 ± 2.9 % | RBC: Red blood cell count (dogs, 80 mg/kg/day oral, d28): 4.17 ± 0.33 ×10^12/L | RET: Reticulocytes (dogs, 80 mg/kg/day oral, d28): 0.21 ± 0.16 % | APTT: Activated partial thromboplastin time [12]: 12.7 ± 0.9 s | FIB: Fibrinogen [12]: 3.72 ± 2.00 g/L | HCT: Hematocrit [12]: 37.5 ± 3.1% | HGB: Hemoglobin concentration [12]: 126 ± 4 g/L | MON: Monocyte [12]: 5.0 ± 1.9% | RBC: Red blood cell count [12]: 5.71 ± 0.50 ×10^12/L | RET: Reticulocytes [12]: 0.88 ± 0.27%
